# Source: patent US20260008776A1 (HANGZHOU POLYMED BIOPHARMACEUTICALS, INC., priority 2023, published 2026)
# Read-outs that look alike come from different tables or passages of the source.
# How the values were obtained:
# [1] = Solubility test of salts in pH buffers, water and physiological solutions; format: physicochemical
# Method: The solubility of dominant salts in different pH buffers, water, and physiological solutions was determined. The specific steps for solubility determination are as follows: […] The vials were sealed, transferred to a magnetic stirrer, and maintained at 25° C. with a stirring rate of 500 rpm for 24 hours. The dissolution status in sample vials was recorded during the test. After 24 hours, approximately 1 mL of the suspension was filtered, and the filtrate was collected for solubility test via HPLC analysis. The pH value of the filtrate sample was measured using a pH meter.
# [2] = format: physicochemical
# Method: The glass dishes or glass vials were then placed in different environments of the constant temperature and humidity chamber, with conditions including: illumination: 4500±500 Lux (open); high temperature: 60° C.
# [3] = DVS test of salt forms; format: physicochemical; details: for Hygroscopicity (DVS), in words: 0% to 90% humidity, two cycles
# Excerpt: 1. The instrument sample pan was first tared and balanced.
# 3. The program was run: starting from 0% humidity as the initial point, slowly increasing to 90%, then returning to 0% to complete the cycle 1; rising again to 90% and decreasing back to 0% to conclude, completing the cycle 2 (as shown in FIGS. 35-36).
# [4] = High Relative Humidity (RH = 90 ± 5%, Open, 25° C.), 5 Days
# [5] = High Relative Humidity (RH = 90 ± 5%, Open, 25° C.), 11 Days
# [6] = High Temperature (60° C., Sealed), 5 Days
# [7] = High Temperature (60° C., Sealed), 11 Days
# [8] = Strong Illumination (Open), 5 Days
# [9] = Strong Illumination (Open), 11 Days
structure (smiles),measurement,setting,value
CC(C)(O)CCn1cc2cc(NC(=O)c3coc(-c4ccnc(C(F)(F)F)c4)n3)c(C(C)(C)O)cc2n1.Cl [crystal form A of hydrochloride salt],Solubility at 25° C.,"[1]; Buffer pH = 1.0, 24 hours",172.73 µg/mL
same,Solubility at 25° C.,"[1]; Buffer pH = 6.8, 24 hours",<LOD
same,Solubility at 25° C.,"[1]; FaSSIF (pH = 6.5), 24 hours",2.09 µg/mL
same,Solubility at 25° C.,"[1]; FeSSIF (pH = 5.0), 24 hours",7.86 µg/mL
same,Solubility at 25° C.,"[1]; SGF (pH = 1.2), 24 hours",2.20 µg/mL
same,Solubility at 25° C.,"[1]; Water, 24 hours",<LOD
same,Solid-state stability evaluation,[2],good physical and chemical stability
same,Color Change,[2]; [4],No Change
same,Purity,[2]; [4],99.65%
same,Salt Type,[2]; [4],No Change
same,Color Change,[2]; [5],No Change
same,Purity,[2]; [5],99.79%
same,Salt Type,[2]; [5],No Change
same,Color Change,[2]; [6],No Change
same,Purity,[2]; [6],99.64%
same,Salt Type,[2]; [6],No Change
same,Color Change,[2]; [7],No Change
same,Purity,[2]; [7],99.48%
same,Salt Type,[2]; [7],No Change
same,Purity,[2]; Initial State,98.53%
same,Color Change,[2]; Initial State (colour),White
same,Color Change,[2]; [8],No Change
same,Purity,[2]; [8],99.68%
same,Salt Type,[2]; [8],No Change
same,Color Change,[2]; [9],No Change
same,Purity,[2]; [9],99.56%
same,Salt Type,[2]; [9],No Change
same,Change of the sample before and after the DVS test,[3],no changes are observed
same,"Hygroscopicity (DVS), in words",[3],low hygroscopicity
same,Water Sorption at 90% Relative Humidity,[3],0.42% Water Sorption at 90% Relative Humidity
same,Desorption,"[3]; cycle 1, 0% humidity",−0.06%
same,Sorption,"[3]; cycle 1, 0% humidity",0.00%
same,Desorption,"[3]; cycle 1, 10% humidity",−0.02%
same,Sorption,"[3]; cycle 1, 10% humidity",−0.02%
same,Desorption,"[3]; cycle 1, 20% humidity",0.01%
same,Sorption,"[3]; cycle 1, 20% humidity",0.00%
same,Desorption,"[3]; cycle 1, 30% humidity",0.04%
same,Sorption,"[3]; cycle 1, 30% humidity",0.03%
same,Desorption,"[3]; cycle 1, 40% humidity",0.07%
same,Sorption,"[3]; cycle 1, 40% humidity",0.06%
same,Desorption,"[3]; cycle 1, 50% humidity",0.11%
same,Sorption,"[3]; cycle 1, 50% humidity",0.09%
same,Desorption,"[3]; cycle 1, 60% humidity",0.16%
same,Sorption,"[3]; cycle 1, 60% humidity",0.13%
same,Desorption,"[3]; cycle 1, 70% humidity",0.21%
same,Sorption,"[3]; cycle 1, 70% humidity",0.17%
same,Desorption,"[3]; cycle 1, 80% humidity",0.30%
same,Sorption,"[3]; cycle 1, 80% humidity",0.28%
same,Desorption,"[3]; cycle 1, 90% humidity",0.42%
same,Sorption,"[3]; cycle 1, 90% humidity",0.42%
same,Desorption,"[3]; cycle 2, 0% humidity",−0.05%
same,Sorption,"[3]; cycle 2, 0% humidity",−0.06%
same,Desorption,"[3]; cycle 2, 10% humidity",−0.02%
same,Sorption,"[3]; cycle 2, 10% humidity",−0.03%
same,Desorption,"[3]; cycle 2, 20% humidity",0.01%
same,Sorption,"[3]; cycle 2, 20% humidity",0.01%
same,Desorption,"[3]; cycle 2, 30% humidity",0.05%
same,Sorption,"[3]; cycle 2, 30% humidity",0.03%
same,Desorption,"[3]; cycle 2, 40% humidity",0.08%
same,Sorption,"[3]; cycle 2, 40% humidity",0.07%
same,Desorption,"[3]; cycle 2, 50% humidity",0.12%
same,Sorption,"[3]; cycle 2, 50% humidity",0.10%
same,Desorption,"[3]; cycle 2, 60% humidity",0.17%
same,Sorption,"[3]; cycle 2, 60% humidity",0.14%
same,Desorption,"[3]; cycle 2, 70% humidity",0.22%
same,Sorption,"[3]; cycle 2, 70% humidity",0.19%
same,Desorption,"[3]; cycle 2, 80% humidity",0.32%
same,Sorption,"[3]; cycle 2, 80% humidity",0.30%
same,Desorption,"[3]; cycle 2, 90% humidity",0.45%
same,Sorption,"[3]; cycle 2, 90% humidity",0.45%
CC(C)(O)CCn1cc2cc(NC(=O)c3coc(-c4ccnc(C(F)(F)F)c4)n3)c(C(C)(C)O)cc2n1.O=P(O)(O)O [crystal form A of phosphate salt],Solubility at 25° C.,"[1]; Buffer pH = 6.8, 24 hours",<LOD
same,Solubility at 25° C.,"[1]; FaSSIF (pH = 6.5), 24 hours",<LOD
same,Solubility at 25° C.,"[1]; FeSSIF (pH = 5.0), 24 hours",<LOD
same,Solubility at 25° C.,"[1]; SGF (pH = 1.2), 24 hours",<LOD
same,Solubility at 25° C.,"[1]; Water, 24 hours",<LOD
same,Color Change,[2]; [4],No Change
same,Purity,[2]; [4],99.66%
same,Salt Type,[2]; [4],No Change
same,Color Change,[2]; [5],No Change
same,Purity,[2]; [5],99.33%
same,Salt Type,[2]; [5],No Change
same,Color Change,[2]; [6],Turn Yellow
same,Purity,[2]; [6],99.49%
same,Salt Type,[2]; [6],No Change
same,Color Change,[2]; [7],Turn Yellow
same,Purity,[2]; [7],99.49%
same,Salt Type,[2]; [7],No Change
same,Purity,[2]; Initial State,99.18%
same,Color Change,[2]; Initial State (colour),White
same,Color Change,[2]; [8],No Change
same,Purity,[2]; [8],99.67%
same,Salt Type,[2]; [8],No Change
same,Color Change,[2]; [9],No Change
same,Purity,[2]; [9],99.01%
same,Salt Type,[2]; [9],No Change
same,Change of the sample before and after the DVS test,[3],no changes are observed
same,"Hygroscopicity (DVS), in words",[3],low hygroscopicity
same,Water Sorption at 90% Relative Humidity,[3],0.80% Water Sorption at 90% Relative Humidity
same,Desorption,"[3]; cycle 1, 0% humidity",−0.04%
same,Sorption,"[3]; cycle 1, 0% humidity",0.00%
same,Desorption,"[3]; cycle 1, 10% humidity",−0.01%
same,Sorption,"[3]; cycle 1, 10% humidity",0.02%
same,Desorption,"[3]; cycle 1, 20% humidity",0.01%
same,Sorption,"[3]; cycle 1, 20% humidity",0.04%
same,Desorption,"[3]; cycle 1, 30% humidity",0.04%
same,Sorption,"[3]; cycle 1, 30% humidity",0.06%
same,Desorption,"[3]; cycle 1, 40% humidity",0.09%
same,Sorption,"[3]; cycle 1, 40% humidity",0.10%
same,Desorption,"[3]; cycle 1, 50% humidity",0.15%
same,Sorption,"[3]; cycle 1, 50% humidity",0.14%
same,Desorption,"[3]; cycle 1, 60% humidity",0.21%
same,Sorption,"[3]; cycle 1, 60% humidity",0.20%
same,Desorption,"[3]; cycle 1, 70% humidity",0.31%
same,Sorption,"[3]; cycle 1, 70% humidity",0.29%
same,Desorption,"[3]; cycle 1, 80% humidity",0.46%
same,Sorption,"[3]; cycle 1, 80% humidity",0.44%
same,Desorption,"[3]; cycle 1, 90% humidity",0.80%
same,Sorption,"[3]; cycle 1, 90% humidity",0.80%
same,Desorption,"[3]; cycle 2, 0% humidity",−0.05%
same,Sorption,"[3]; cycle 2, 0% humidity",−0.04%
same,Desorption,"[3]; cycle 2, 10% humidity",−0.03%
same,Sorption,"[3]; cycle 2, 10% humidity",−0.02%
same,Desorption,"[3]; cycle 2, 20% humidity",0.00%
same,Sorption,"[3]; cycle 2, 20% humidity",0.01%
same,Desorption,"[3]; cycle 2, 30% humidity",0.03%
same,Sorption,"[3]; cycle 2, 30% humidity",0.04%
same,Desorption,"[3]; cycle 2, 40% humidity",0.07%
same,Sorption,"[3]; cycle 2, 40% humidity",0.07%
same,Desorption,"[3]; cycle 2, 50% humidity",0.13%
same,Sorption,"[3]; cycle 2, 50% humidity",0.12%
same,Desorption,"[3]; cycle 2, 60% humidity",0.20%
same,Sorption,"[3]; cycle 2, 60% humidity",0.18%
same,Desorption,"[3]; cycle 2, 70% humidity",0.29%
same,Sorption,"[3]; cycle 2, 70% humidity",0.27%
same,Desorption,"[3]; cycle 2, 80% humidity",0.45%
same,Sorption,"[3]; cycle 2, 80% humidity",0.43%
same,Desorption,"[3]; cycle 2, 90% humidity",0.79%
same,Sorption,"[3]; cycle 2, 90% humidity",0.79%
CC(C)(O)CCn1cc2cc(NC(=O)c3coc(-c4ccnc(C(F)(F)F)c4)n3)c(C(C)(C)O)cc2n1.O=S(=O)(O)O [crystal form A of sulfate salt],Solubility at 25° C.,"[1]; Buffer pH = 1.0, 24 hours",179.03 µg/mL
same,Solubility at 25° C.,"[1]; Buffer pH = 6.8, 24 hours",<LOD
same,Solubility at 25° C.,"[1]; FaSSIF (pH = 6.5), 24 hours",<LOD
same,Solubility at 25° C.,"[1]; FeSSIF (pH = 5.0), 24 hours",19.45 µg/mL
same,Solubility at 25° C.,"[1]; SGF (pH = 1.2), 24 hours",2.88 µg/mL
same,Solubility at 25° C.,"[1]; Water, 24 hours",1.34 µg/mL
same,Color Change,[2]; [4],Turn Yellow
same,Purity,[2]; [4],99.08%
same,Salt Type,[2]; [4],No Change
same,Purity,[2]; [5],99.14%
same,Salt Type,[2]; [5],No Change
same,Color Change,[2]; [6],Turn Yellow
same,Purity,[2]; [6],99.74%
same,Salt Type,[2]; [6],No Change
same,Color Change,[2]; [7],Turn Yellow
same,Purity,[2]; [7],98.39%
same,Salt Type,[2]; [7],No Change
same,Purity,[2]; Initial State,99.12%
same,Color Change,[2]; Initial State (colour),White
same,Color Change,[2]; [8],No Change
same,Purity,[2]; [8],99.35%
same,Salt Type,[2]; [8],No Change
same,Color Change,[2]; [9],No Change
same,Purity,[2]; [9],99.26%
same,Salt Type,[2]; [9],No Change
